Experimental data as given in ChEMBL document CHEMBL4295262, “Evaluation of the utility of stem-cell derived cardiomyocytes for drug proarrhythmic potential” (2019).
Values belong to the compound of their own block, whether it stands above or below them.

Key:
Settings in all cases: human, ipsc-cm
[1] = (§1) Electrical activity assay on cell lines treated with a given drug. DMSO was used as a vehicle and a control, unblinded dofetilide was used as a control.; assay type: ADME, cell-based; parameters: FPDc: unit not given here
[2] = as §1
[3] = as §1; remark: listed apart in the source
[4] = as §1; assay type: ADME, cell-based
[5] = as §1; remark: listed apart in the source
[6] = as §1; assay type: ADME, cell-based; remark: listed apart in the source
[7] = 0.03 µM, concentration (um) 0.03 uM
[8] = 0.1 µM, concentration (um) 0.1 uM
[9] = 10 µM, concentration (um) 10 uM
[10] = 100 µM, concentration (um) 100 uM
[11] = 0.09507 µM, concentration (um) 0.0950736 uM
[12] = 0.3004 µM, concentration (um) 0.300433 uM
[13] = 0.9494 µM, concentration (um) 0.949367 uM
[14] = 0.01 µM, concentration (um) 0.01 uM

FPDc [1, 7]: 29.28
FPDc ([1]; 0.3 µM, concentration (um) 0.3 uM): 58.03
FPDc ([1]; 3 µM, concentration (um) 3 uM): 37.01
FPDc ([1]; 30 µM, concentration (um) 30 uM): 17.75
FPD measurement ([2]; 0.03 µM): 54.59 FPDc
FPDc ([2]; 0.03 µM): 54.59
FPD measurement ([2]; 0.3 µM): 58.58 FPDc
FPDc ([2]; 0.3 µM): 58.58
FPD measurement ([2]; 3 µM): 68.22 FPDc
FPDc ([2]; 3 µM): 68.22
SMILES: Cc1nccn1CC1CCc2c(c3ccccc3n2C)C1=O (centres undefined) [ONDANSETRON]
FPD measurement [1, 7]: 5 Values Out Of 5 Were Excluded Due To Quiescence Or 0 Apdc
FPD measurement ([2]; 30 µM): More Than Half The Wells Had A Quiescence Event Or Fpdc Readings Of 0
FPDc ([2]; 30 µM): More Than Half The Wells Had A Quiescence Event Or Fpdc Readings Of 0
FPD measurement ([3]; 0.03 µM): 1 Values Out Of 1 Were Excluded Due To Quiescence Or 0 Fpdc
FPDc ([3]; 0.03 µM): 1 Values Out Of 1 Were Excluded Due To Quiescence Or 0 Fpdc
FPD measurement ([3]; 0.3 µM): 1 Values Out Of 1 Were Excluded Due To Quiescence Or 0 Fpdc
FPDc ([3]; 0.3 µM): 1 Values Out Of 1 Were Excluded Due To Quiescence Or 0 Fpdc
FPD measurement ([3]; 3 µM): 1 Values Out Of 1 Were Excluded Due To Quiescence Or 0 Fpdc
FPDc ([3]; 3 µM): 1 Values Out Of 1 Were Excluded Due To Quiescence Or 0 Fpdc
FPD measurement ([3]; 30 µM): 1 Values Out Of 1 Were Excluded Due To Quiescence Or 0 Fpdc
FPDc ([3]; 30 µM): 1 Values Out Of 1 Were Excluded Due To Quiescence Or 0 Fpdc

FPD measurement [4, 8]: 51.73 FPDc
FPD measurement ([4]; 1 µM, concentration (um) 1 uM): 54.52 FPDc
FPD measurement [4, 9]: 75.35 FPDc
FPDc [1, 8]: 63.44
FPDc ([1]; 1 µM, concentration (um) 1 uM): 57.19
FPDc [1, 9]: 48.79
FPDc [1, 10]: 47.75
APDc ([5]; 0.1 µM): 65.99
FPD measurement ([5]; 0.1 µM): 65.99 FPDc
APDc ([5]; 1 µM): 53.66
FPD measurement ([5]; 1 µM): 53.66 FPDc
APDc ([5]; 10 µM): 57.23
FPD measurement ([5]; 10 µM): 57.23 FPDc
APDc ([5]; 100 µM): 60.49
FPD measurement ([5]; 100 µM): 60.49 FPDc
FPDc [6, 8]: 23.9
FPDc ([6]; 1 µM, concentration (um) 1 uM): 22.6
FPDc [6, 9]: 23.41
SMILES: COc1ccccc1OCC(O)CN1CCN(CC(=O)Nc2c(C)cccc2C)CC1 (centres undefined) [RANOLAZINE]
FPDc [4, 8]: 6 Values Out Of 6 Were Excluded Due To Quiescence Or 0 Fpdc
FPDc ([4]; 1 µM, concentration (um) 1 uM): 6 Values Out Of 6 Were Excluded Due To Quiescence Or 0 Fpdc
FPDc [4, 9]: 6 Values Out Of 6 Were Excluded Due To Quiescence Or 0 Fpdc
FPDc [4, 10]: 6 Values Out Of 6 Were Excluded Due To Quiescence Or 0 Fpdc
FPD measurement ([1]; 1 µM, concentration (um) 1 uM): 5 Values Out Of 5 Were Excluded Due To Quiescence Or 0 Apdc
FPD measurement [6, 8]: 5 Values Out Of 5 Were Excluded Due To Quiescence Or 0 Apdc
FPD measurement ([6]; 1 µM, concentration (um) 1 uM): 5 Values Out Of 5 Were Excluded Due To Quiescence Or 0 Apdc
FPD measurement [6, 9]: 5 Values Out Of 5 Were Excluded Due To Quiescence Or 0 Apdc
FPD measurement [6, 10]: More Than Half The Wells Had A Quiescence Event Or Apdc Readings Of 0
FPDc [6, 10]: More Than Half The Wells Had A Quiescence Event Or Fpdc Readings Of 0

FPD measurement [4, 14]: 50.93 FPDc
FPD measurement [4, 8]: 55.37 FPDc
FPD measurement ([4]; 1 µM, concentration (um) 1 uM): 118.9 FPDc
FPDc [1, 14]: 55.57
FPDc [1, 8]: 48.34
FPDc ([1]; 1 µM, concentration (um) 1 uM): 57.73
FPDc [1, 9]: 73.71
APDc ([5]; 0.01 µM): 51.06
FPD measurement ([5]; 0.01 µM): 51.06 FPDc
APDc ([5]; 0.1 µM): 61.45
FPD measurement ([5]; 0.1 µM): 61.45 FPDc
APDc ([5]; 1 µM): 63.98
FPD measurement ([5]; 1 µM): 63.98 FPDc
APDc ([5]; 10 µM): 78.14
FPD measurement ([5]; 10 µM): 78.14 FPDc
FPDc [6, 14]: 21.62
FPDc [6, 8]: 20.73
FPDc ([6]; 1 µM, concentration (um) 1 uM): 22.97
SMILES: COc1cc2c(Nc3ccc(Br)cc3F)ncnc2cc1OCC1CCN(C)CC1 [VANDETANIB]
FPDc [4, 14]: 6 Values Out Of 6 Were Excluded Due To Quiescence Or 0 Fpdc
FPDc [4, 8]: 6 Values Out Of 6 Were Excluded Due To Quiescence Or 0 Fpdc
FPDc ([4]; 1 µM, concentration (um) 1 uM): 6 Values Out Of 6 Were Excluded Due To Quiescence Or 0 Fpdc
FPDc [4, 9]: 6 Values Out Of 6 Were Excluded Due To Quiescence Or 0 Fpdc
FPD measurement [1, 14]: 5 Values Out Of 5 Were Excluded Due To Quiescence Or 0 Apdc
FPD measurement [1, 8]: 5 Values Out Of 5 Were Excluded Due To Quiescence Or 0 Apdc
FPD measurement ([1]; 1 µM, concentration (um) 1 uM): 5 Values Out Of 5 Were Excluded Due To Quiescence Or 0 Apdc
FPD measurement [1, 9]: 5 Values Out Of 5 Were Excluded Due To Quiescence Or 0 Apdc
FPD measurement [6, 14]: 5 Values Out Of 5 Were Excluded Due To Quiescence Or 0 Apdc
FPD measurement [6, 8]: 5 Values Out Of 5 Were Excluded Due To Quiescence Or 0 Apdc
FPD measurement ([6]; 1 µM, concentration (um) 1 uM): 5 Values Out Of 5 Were Excluded Due To Quiescence Or 0 Apdc
FPD measurement [6, 9]: 5 Values Out Of 5 Were Excluded Due To Quiescence Or 0 Apdc
FPDc [6, 9]: 5 Values Out Of 5 Were Excluded Due To Quiescence Or 0 Fpdc

Second part, the compound before the results:

SMILES: CC(C)NCC(O)c1ccc(NS(C)(=O)=O)cc1 (centres undefined) [SOTALOL]
FPD measurement [4, 8]: 50.96 FPDc
FPDc [4, 8]: 6 Values Out Of 6 Were Excluded Due To Quiescence Or 0 Fpdc
FPD measurement ([4]; 1 µM, concentration (um) 1 uM): 54.95 FPDc
FPDc ([4]; 1 µM, concentration (um) 1 uM): 6 Values Out Of 6 Were Excluded Due To Quiescence Or 0 Fpdc
FPD measurement [4, 9]: 164 FPDc
FPDc [4, 9]: 6 Values Out Of 6 Were Excluded Due To Quiescence Or 0 Fpdc
FPDc [4, 10]: 6 Values Out Of 6 Were Excluded Due To Quiescence Or 0 Fpdc
FPD measurement [1, 8]: 5 Values Out Of 5 Were Excluded Due To Quiescence Or 0 Apdc
FPDc [1, 8]: 44.43
FPD measurement ([1]; 1 µM, concentration (um) 1 uM): 5 Values Out Of 5 Were Excluded Due To Quiescence Or 0 Apdc
FPDc ([1]; 1 µM, concentration (um) 1 uM): 41.07
FPD measurement [1, 9]: 5 Values Out Of 5 Were Excluded Due To Quiescence Or 0 Apdc
FPDc [1, 9]: 57.04
FPD measurement [1, 10]: 5 Values Out Of 5 Were Excluded Due To Quiescence Or 0 Apdc
FPDc [1, 10]: 45.01
APDc ([5]; 0.1 µM): 62.02
FPD measurement ([5]; 0.1 µM): 62.02 FPDc
APDc ([5]; 1 µM): 63.35
FPD measurement ([5]; 1 µM): 63.35 FPDc
APDc ([5]; 10 µM): 71.54
FPD measurement ([5]; 10 µM): 71.54 FPDc
APDc ([5]; 100 µM): 79.39
FPD measurement ([5]; 100 µM): 79.39 FPDc
FPD measurement [6, 8]: 5 Values Out Of 5 Were Excluded Due To Quiescence Or 0 Apdc
FPDc [6, 8]: 22.36
FPD measurement ([6]; 1 µM, concentration (um) 1 uM): 5 Values Out Of 5 Were Excluded Due To Quiescence Or 0 Apdc
FPDc ([6]; 1 µM, concentration (um) 1 uM): 20.88
FPD measurement [6, 9]: 5 Values Out Of 5 Were Excluded Due To Quiescence Or 0 Apdc
FPDc [6, 9]: 24.73
FPD measurement [6, 10]: More Than Half The Wells Had A Quiescence Event Or Apdc Readings Of 0
FPDc [6, 10]: More Than Half The Wells Had A Quiescence Event Or Fpdc Readings Of 0

SMILES: CC/C(=C(\c1ccccc1)c1ccc(OCCN(C)C)cc1)c1ccccc1 [TAMOXIFEN]
FPD measurement [4, 11]: 46.23 FPDc
FPDc [4, 11]: 6 Values Out Of 6 Were Excluded Due To Quiescence Or 0 Fpdc
FPD measurement [4, 12]: 47.89 FPDc
FPDc [4, 12]: 6 Values Out Of 6 Were Excluded Due To Quiescence Or 0 Fpdc
FPD measurement [4, 13]: 110.7 FPDc
FPDc [4, 13]: 6 Values Out Of 6 Were Excluded Due To Quiescence Or 0 Fpdc
FPDc ([4]; 3 µM, concentration (um) 3 uM): 6 Values Out Of 6 Were Excluded Due To Quiescence Or 0 Fpdc
FPD measurement [1, 11]: 5 Values Out Of 5 Were Excluded Due To Quiescence Or 0 Apdc
FPDc [1, 11]: 53.17
FPD measurement [1, 12]: 5 Values Out Of 5 Were Excluded Due To Quiescence Or 0 Apdc
FPDc [1, 12]: 49.96
FPD measurement [1, 13]: 5 Values Out Of 5 Were Excluded Due To Quiescence Or 0 Apdc
FPDc [1, 13]: 53.33
FPD measurement ([1]; 3 µM, concentration (um) 3 uM): 5 Values Out Of 5 Were Excluded Due To Quiescence Or 0 Apdc
FPDc ([1]; 3 µM, concentration (um) 3 uM): 51.88
FPD measurement [6, 11]: 5 Values Out Of 5 Were Excluded Due To Quiescence Or 0 Apdc
FPDc [6, 11]: 19.16
FPD measurement [6, 12]: 5 Values Out Of 5 Were Excluded Due To Quiescence Or 0 Apdc
FPDc [6, 12]: 19.98
FPD measurement [6, 13]: 5 Values Out Of 5 Were Excluded Due To Quiescence Or 0 Apdc
FPDc [6, 13]: 19.22
FPD measurement ([6]; 3 µM, concentration (um) 3 uM): 5 Values Out Of 5 Were Excluded Due To Quiescence Or 0 Apdc
FPDc ([6]; 3 µM, concentration (um) 3 uM): 16.9
